Drawing on US11596639B2, “Substituted indole Mcl-1 inhibitors” (Vanderbilt University, priority 2016, dated 2023), this text covers GI50 and Ki for 16 compounds.

Some results are limits rather than exact numbers.

Assay [1] relates to H929 human cancer cell lines. Description: Cellular viability / proliferation (Cell TiterGlo, 72 h). The format is cell-based. The following applies: Homo sapiens, NCI-H929, 72 h, read-out: GI50 on cellular proliferation of H929 human cancer cell lines, H929 cells, 72 h, Cell TiterGlo, 10% FBS. The gist of the method:
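1,000 cells/well, 10% FBS medium; compound added at 24 h, 2-fold dilutions from 50 μM top, DMSO <1% final. 72 h exposure, CellTiterGlo 30 min RT dark, luminescence read. IC50 by 4-parameter fit.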
(In ATP-based viability assays light output follows the ATP content of the culture.)

Another assay deals with Mcl-1 (Homo sapiens (Human), UniProt Q07820). Description: TR-FRET binding assay, FITC-Bak peptide and MBP-tagged Mcl-1. The following applies: read-out: Ki for Inhibition of Mcl-1 by TR-FRET assay. The procedure: Compounds are diluted in DMSO in a 16-point, semilog serial dilution scheme. […] The plate was mixed and incubated for 3 hours at room temperature. […] TR-FRET signal is plotted and IC50 and Ki values are calculated in the same manner as the fluorescence polarization anisotropy based competition assays.
Chain of Mcl-1 (Q07820 172-327): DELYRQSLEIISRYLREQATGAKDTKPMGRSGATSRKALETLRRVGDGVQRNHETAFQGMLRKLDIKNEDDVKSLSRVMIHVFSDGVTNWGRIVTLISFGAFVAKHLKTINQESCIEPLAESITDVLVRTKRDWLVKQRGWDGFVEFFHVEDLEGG
A general note: TR-FRET usually uses a lanthanide donor and a delayed reading to cut background.

By Ki is commonly meant a measure of affinity in units of concentration, obtained from inhibition or displacement. Consider `Cc1cc(N2C[C@@H](C)n3c(c(CCCOc4cc(C)c(Cl)c(C)c4)c4ccc(Cl)c(-c5c(C)nn(C)c5C)c43)C2=O)c2c(c1)cc(C(=O)O)n2CC(=O)N(C)C` [Example 596, (R)-7-(7-chloro-10-(3-(4-chloro-3,5-dimethylphenoxy)propyl)-4-methyl-1-oxo-6-(1,3,5-trimethyl-1H-pyrazol-4-yl)-3,4-dihydropyrazino[1,2-a]indol-2(1H)-yl)-1-(2-(dimethylamino)-2-oxoethyl)-5-methyl-1H-indole-2-carboxylic acid], for which the GI50 in assay [1] is 1300 nM. Also, at Mcl-1, the Ki was under 0.2 nM.
In the same order, the values of `COCCOc1ccc(N2C[C@@H](C)n3c(c(CCCOc4cc(C)c(Cl)c(C)c4)c4ccc(Cl)c(-c5c(C)nn(C)c5C)c43)C2=O)c2c1cc(C(=O)O)n2Cc1cc(C)ccn1` [Example 632, (R)-7-(7-chloro-10-(3-(4-chloro-3,5-dimethylphenoxy)propyl)-4-methyl-1-oxo-6-(1,3,5-trimethyl-1H-pyrazol-4-yl)-3,4-dihydropyrazino[1,2-a]indol-2(1H)-yl)-4-(2-methoxyethoxy)-1-((4-methylpyridin-2-yl)methyl)-1H-indole-2-carboxylic acid] are 220 nM and under 0.2 nM.
As to `Cc1cc(OCCCc2c3n(c4c(-c5c(C)nn(C)c5C)c(Cl)ccc24)[C@H](C)CN(c2cc(CCN4CCCCC4)cc4cc(C(=O)O)n(C)c24)C3=O)cc(C)c1Cl` [Example 723, (R)-7-(7-chloro-10-(3-(4-chloro-3,5-dimethylphenoxy)propyl)-4-methyl-1-oxo-6-(1,3,5-trimethyl-1H-pyrazol-4-yl)-3,4-dihydropyrazino[1,2-a]indol-2(1H)-yl)-1-methyl-5-(2-(piperidin-1-yl)ethyl)-1H-indole-2-carboxylic acid], in assay [1], the GI50 is under 200 nM. In addition, the Ki on Mcl-1 is under 0.2 nM.
In the same order, the values of `CCN(C)c1cc(N2C[C@@H](C)n3c(c(CCCOc4cc(C)c(Cl)c(C)c4)c4ccc(Cl)c(-c5c(C)nn(C)c5C)c43)C2=O)c2c(c1)cc(C(=O)O)n2C` [Example 680, (R)-7-(7-chloro-10-(3-(4-chloro-3,5-dimethylphenoxy)propyl)-4-methyl-1-oxo-6-(1,3,5-trimethyl-1H-pyrazol-4-yl)-3,4-dihydropyrazino[1,2-a]indol-2(1H)-yl)-5-(ethyl(methyl)amino)-1-methyl-1H-indole-2-carboxylic acid] are 610 nM and 0.33 nM.
On the same counts, the results for `COCCOCCn1c(C(=O)O)cc2cc(C)cc(N3C[C@@H](C)n4c(c(CCCOc5cc(C)c(Cl)c(C)c5)c5ccc(Cl)c(-c6c(C)nn(C)c6C)c54)C3=O)c21` [Example 678, (R)-7-(7-chloro-10-(3-(4-chloro-3,5-dimethylphenoxy)propyl)-4-methyl-1-oxo-6-(1,3,5-trimethyl-1H-pyrazol-4-yl)-3,4-dihydropyrazino[1,2-a]indol-2(1H)-yl)-1-(2-(2-methoxyethoxy)ethyl)-5-methyl-1H-indole-2-carboxylic acid] are under 200 nM and 0.22 nM.
As for `COc1ccc(N2C[C@@H](C)n3c(c(CCCOc4cc(C)c(Cl)c(C)c4)c4ccc(Cl)c(-c5c(C)n[nH]c5C)c43)C2=O)c2c1cc(C(=O)O)n2C` [Example 727, (R)-7-(7-chloro-10-(3-(4-chloro-3,5-dimethylphenoxy)propyl)-6-(3,5-dimethyl-1H-pyrazol-4-yl)-4-methyl-1-oxo-3,4-dihydropyrazino[1,2-a]indol-2(1H)-yl)-4-methoxy-1-methyl-1H-indole-2-carboxylic acid], the GI50 in assay [1] came out at 500 nM. Besides, the Ki on Mcl-1 is under 0.2 nM.
In the same order, the values of `COCCN(C)c1cc(N2C[C@@H](C)n3c(c(CCCOc4cc(C)c(Cl)c(C)c4)c4ccc(Cl)c(-c5c(C)nn(C)c5C)c43)C2=O)c2c(c1)cc(C(=O)O)n2C` [Example 682, (R)-7-(7-chloro-10-(3-(4-chloro-3,5-dimethylphenoxy)propyl)-4-methyl-1-oxo-6-(1,3,5-trimethyl-1H-pyrazol-4-yl)-3,4-dihydropyrazino[1,2-a]indol-2(1H)-yl)-5-((2-methoxyethyl)(methyl)amino)-1-methyl-1H-indole-2-carboxylic acid] are 340 nM and under 0.2 nM.
Take `Cc1ccnc(-n2cnc(-c3ccc4c(c3)c(N3C[C@@H](C)n5c(c(CCCOc6cc(C)c(Cl)c(C)c6)c6ccc(Cl)c(-c7c(C)nn(C)c7C)c65)C3=O)cn4C)n2)n1` [Example 670, (R)-7-Chloro-10-(3-(4-chloro-3,5-dimethylphenoxy)propyl)-4-methyl-2-(1-methyl-5-(1-(4-methylpyrimidin-2-yl)-1H-1,2,4-triazol-3-yl)-1H-indol-3-yl)-6-(1,3,5-trimethyl-1H-pyrazol-4-yl)-3,4-dihydropyrazino[1,2-a]indol-1(2H)-one]: the GI50 in assay [1] was under 200 nM. Also, the Ki at Mcl-1 is under 0.2 nM.
As for `Cc1cc(OCCCc2c3n(c4c(-c5c(C)nn(C)c5C)c(Cl)ccc24)[C@H](C)CN(c2cc(CO)cc4c(C(=O)O)cn(C)c24)C3=O)cc(C)c1Cl` [Example 506, (R)-7-(7-Chloro-10-(3-(4-chloro-3,5-dimethylphenoxy)propyl)-4-methyl-1-oxo-6-(1,3,5-trimethyl-1H-pyrazol-4-yl)-3,4-dihydropyrazino[1,2-a]indol-2(1H)-yl)-5-(hydroxymethyl)-1-methyl-1H-indole-3-carboxylic acid], in assay [1], the GI50 worked out at 1300 nM. The Ki on Mcl-1 is under 0.2 nM.
As for `Cc1cc(N2C[C@@H](C)n3c(c(CCCOc4cc(C)c(Cl)c(C)c4)c4ccc(Cl)c(-c5c(C)nn(C)c5C)c43)C2=O)c2c(c1)cc(C(=O)O)n2Cc1cccc(C#N)n1` [Example 557, (R)-7-(7-chloro-10-(3-(4-chloro-3,5-dimethylphenoxy)propyl)-4-methyl-1-oxo-6-(1,3,5-trimethyl-1H-pyrazol-4-yl)-3,4-dihydropyrazino[1,2-a]indol-2(1H)-yl)-1-((6-cyanopyridin-2-yl)methyl)-5-methyl-1H-indole-2-carboxylic acid], the GI50 in assay [1] came out at 820 nM. The inhibitory constant (Ki) at Mcl-1 is under 0.2 nM.
For the compound `Cc1cc(OCCCc2c3n(c4c(-c5c(C)nn(C)c5C)c(Cl)ccc24)[C@H](C)CN(c2cn(C)c4ccc(-c5cncnc5)cc24)C3=O)cc(C)c1Cl` [Example 653, (R)-7-Chloro-10-(3-(4-chloro-3,5-dimethylphenoxy)propyl)-4-methyl-2-(1-methyl-5-(pyrimidin-5-yl)-1H-indol-3-yl)-6-(1,3,5-trimethyl-1H-pyrazol-4-yl)-3,4-dihydropyrazino[1,2-a]indol-1(2H)-one], the GI50 in assay [1] turned out to be 1900 nM. Besides, the inhibition constant Ki on Mcl-1 is 15 nM.
As for `Cc1cc(OCCCc2c3n(c4c(-c5c(C)nn(C)c5C)c(Cl)ccc24)[C@H](C)CN(c2cn(CCN4CCN(C)C(=O)C4)c4ccc(-c5ncn(C)n5)cc24)C3=O)cc(C)c1Cl` [Example 603, (R)-7-Chloro-10-(3-(4-chloro-3,5-dimethylphenoxy)propyl)-4-methyl-2-(5-(1-methyl-1H-1,2,4-triazol-3-yl)-1-(2-(4-methyl-3-oxopiperazin-1-yl)ethyl)-1H-indol-3-yl)-6-(1,3,5-trimethyl-1H-pyrazol-4-yl)-3,4-dihydropyrazino[1,2-a]indol-1(2H)-one], in assay [1], the GI50 is under 200 nM. For the same compound, the Ki on Mcl-1 was determined as 0.89 nM.
Regarding `Cc1cc(OCCCc2c3n(c4c(-c5c(C)nc(CN6CCOCC6)nc5C)c(Cl)ccc24)[C@H](C)CN(c2cn(C)c4ccc(-c5ncn(C)n5)cc24)C3=O)cc(C)c1Cl` [Example 503, (R)-7-chloro-10-(3-(4-chloro-3,5-dimethylphenoxy)propyl)-6-(4,6-dimethyl-2-(morpholinomethyl)pyrimidin-5-yl)-4-methyl-2-(1-methyl-5-(1-methyl-1H-1,2,4-triazol-3-yl)-1H-indol-3-yl)-3,4-dihydropyrazino[1,2-a]indol-1(2H)-one], the GI50 in assay [1] was under 200 nM. Further, the Ki at Mcl-1 amounted to 3.7 nM.
In the same order, the values of `Cc1cc(OCCCc2c3n(c4c(-c5c(C)nn(C)c5C)c(Cl)ccc24)[C@H](C)CN(c2cc(NCc4ccccn4)cc4c(C(=O)O)cn(C)c24)C3=O)cc(C)c1Cl` [Example 523, (R)-7-(7-Chloro-10-(3-(4-chloro-3,5-dimethylphenoxy)propyl)-4-methyl-1-oxo-6-(1,3,5-trimethyl-1H-pyrazol-4-yl)-3,4-dihydropyrazino[1,2-a]indol-2(1H)-yl)-1-methyl-5-((pyridin-2-ylmethyl)amino)-1H-indole-3-carboxylic acid] are 890 nM and 0.5 nM.
In the same order, the values of `Cc1cc(OCCCc2c3n(c4c(-c5c(C)nn(C)c5C)c(Cl)ccc24)[C@H](C)CN(c2cc(Oc4ccccn4)cc4cc(C(=O)O)n(C)c24)C3=O)cc(C)c1Cl` [Example 522, (R)-7-(7-Chloro-10-(3-(4-chloro-3,5-dimethylphenoxy)propyl)-4-methyl-1-oxo-6-(1,3,5-trimethyl-1H-pyrazol-4-yl)-3,4-dihydropyrazino[1,2-a]indol-2(1H)-yl)-1-methyl-5-(pyridin-2-yloxy)-1H-indole-2-carboxylic acid] are 750 nM and 0.32 nM.
On the same counts, the results for `Cc1cc(OCCCc2c3n(c4c(-c5c(C)nn(C)c5C)c(Cl)ccc24)[C@H](C)CN(c2cc(CN4CCN(C)CC4)cc4cc(C(=O)O)n(C)c24)C3=O)cc(C)c1Cl` [Example 544, (R)-7-(7-Chloro-10-(3-(4-chloro-3,5-dimethylphenoxy)propyl)-4-methyl-1-oxo-6-(1,3,5-trimethyl-1H-pyrazol-4-yl)-3,4-dihydropyrazino[1,2-a]indol-2(1H)-yl)-1-methyl-5-((4-methylpiperazin-1-yl)methyl)-1H-indole-2-carboxylic acid] are 320 nM and under 0.2 nM.
